Laboratory results as given in PMC3437627 (Bioorganic & medicinal chemistry letters, 2008).

Experiments:
α7* nAChRs [1] = molecular target: T1, α7* nAChRs (Rattus norvegicus, UniProt Q05941); assay: [3H]methyllycaconitine; format: binding; settings: 100 nM
[2] = in vivo; cited from earlier work
α4β2* nAChRs = α4β2* nAChRs (Rattus norvegicus, UniProt P09483+P12390); settings: rat brain membranes; cited from earlier work
α7* nAChRs [3] = molecular target: T1, α7* nAChRs; settings: rat brain membranes; cited from earlier work
[4] = tested on: nicotine self-administration; settings: rats; cited from earlier work

T1 sequence (Q05941 23-502): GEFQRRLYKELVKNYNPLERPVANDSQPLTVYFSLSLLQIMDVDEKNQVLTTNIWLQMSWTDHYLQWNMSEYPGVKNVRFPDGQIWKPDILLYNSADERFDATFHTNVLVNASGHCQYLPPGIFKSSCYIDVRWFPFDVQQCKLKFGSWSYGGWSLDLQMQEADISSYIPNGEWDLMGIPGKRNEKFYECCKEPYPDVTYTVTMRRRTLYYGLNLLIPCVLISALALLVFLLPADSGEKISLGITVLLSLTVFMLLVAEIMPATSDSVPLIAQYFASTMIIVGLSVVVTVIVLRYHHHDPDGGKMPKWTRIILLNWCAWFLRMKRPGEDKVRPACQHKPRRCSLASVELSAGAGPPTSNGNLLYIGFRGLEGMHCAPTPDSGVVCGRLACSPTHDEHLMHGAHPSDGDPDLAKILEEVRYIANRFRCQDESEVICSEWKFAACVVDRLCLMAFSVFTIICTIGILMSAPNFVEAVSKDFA
Chain of α4β2* nAChRs (P09483 31-630): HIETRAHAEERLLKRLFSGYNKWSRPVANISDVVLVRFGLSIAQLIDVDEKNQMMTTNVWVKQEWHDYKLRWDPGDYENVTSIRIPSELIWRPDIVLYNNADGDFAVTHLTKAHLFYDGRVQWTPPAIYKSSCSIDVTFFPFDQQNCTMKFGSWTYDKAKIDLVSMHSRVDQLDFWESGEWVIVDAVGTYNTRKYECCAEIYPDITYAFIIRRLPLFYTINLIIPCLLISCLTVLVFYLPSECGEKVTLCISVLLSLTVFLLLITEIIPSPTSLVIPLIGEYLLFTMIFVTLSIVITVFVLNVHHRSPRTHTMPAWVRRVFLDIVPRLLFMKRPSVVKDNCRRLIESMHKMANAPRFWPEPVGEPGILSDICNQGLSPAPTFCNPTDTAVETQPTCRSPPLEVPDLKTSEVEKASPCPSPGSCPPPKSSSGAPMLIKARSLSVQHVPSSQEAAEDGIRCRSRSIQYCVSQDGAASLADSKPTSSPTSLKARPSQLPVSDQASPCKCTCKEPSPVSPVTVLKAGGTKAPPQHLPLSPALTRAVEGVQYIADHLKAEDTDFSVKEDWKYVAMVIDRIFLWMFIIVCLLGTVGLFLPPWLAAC
Chain of α4β2* nAChRs (P12390 25-500): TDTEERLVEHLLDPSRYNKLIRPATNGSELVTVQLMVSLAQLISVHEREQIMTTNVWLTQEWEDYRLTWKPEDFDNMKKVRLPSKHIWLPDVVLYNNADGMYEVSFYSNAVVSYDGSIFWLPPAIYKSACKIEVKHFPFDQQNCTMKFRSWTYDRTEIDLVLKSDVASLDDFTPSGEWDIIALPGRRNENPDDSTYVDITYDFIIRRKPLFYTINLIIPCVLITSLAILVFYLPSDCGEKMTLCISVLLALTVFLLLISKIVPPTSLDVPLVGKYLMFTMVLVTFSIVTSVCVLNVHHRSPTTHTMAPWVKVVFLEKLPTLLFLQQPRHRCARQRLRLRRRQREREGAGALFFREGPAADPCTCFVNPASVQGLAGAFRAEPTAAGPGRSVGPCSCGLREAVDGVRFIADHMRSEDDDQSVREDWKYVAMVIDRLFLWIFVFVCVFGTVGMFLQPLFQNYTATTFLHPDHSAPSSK

## C(#Cc1cc(C#CCCC[n+]2cccc(-c3ccccc3)c2)c(C#CCCC[n+]2cccc(-c3ccccc3)c2)cc1C#CCCC[n+]1cccc(-c2ccccc2)c1)CCC[n+]1cccc(-c2ccccc2)c1.[Br-].[Br-].[Br-].[Br-] [Compound 8i]
α7* nAChRs [1]
  inhibition in the MLA assay: significant inhibition

## Cc1ccc[n+](CCCCCCCCCCCC[n+]2cccc(C)c2)c1.[Br-].[Br-] [Compound 2, N,N’-dodecane-1,12-diyl-bis-3-picolinium dibromide]
[2]
  brain bioavailability: brain bio-available
α4β2* nAChRs
  affinity for α4β2* nAChR binding site: no affinity
α7* nAChRs [3]
  affinity for α7* nAChR binding site: no affinity
[4]
  effect on nicotine self-administration: decrease nicotine self-administration

## C(#Cc1cc(C#CCCC[n+]2cccc(Cc3ccccc3)c2)c(C#CCCC[n+]2cccc(Cc3ccccc3)c2)cc1C#CCCC[n+]1cccc(Cc2ccccc2)c1)CCC[n+]1cccc(Cc2ccccc2)c1.[Br-].[Br-].[Br-].[Br-] [Compound 8f]
α7* nAChRs [1]
  inhibition in the MLA assay: significant inhibition
